# Assay results published in patent US20230096766A1, “AMINO ACID HAVING FUNCTIONAL GROUP CAPABLE OF INTERMOLECULAR HYDROGEN BONDING, PEPTIDE COMPOUND CONTAINING SAME AND METHOD FOR PRODUCTION THEREOF” (Chugai Seiyaku Kabushiki Kaisha, priority 2018, published 2023).
# *1 amine or outer side, *2 acyl side, *3 side chain or, on linkers, in order; H or OH if unused. Where a SMILES comes first, the peptide text is derived from it. Bridges are numbered along the chain shown (N, C = ends). [ ]: non-standard residue; d: D form. The star is where a group is joined. Phe(3-OMe,4-CONHMs) = COc1cc(C[C@H](N)C(=O)O)ccc1C(=O)NS(C)(=O)=O; NMePhe(3-Cl) = CN[C@@H](Cc1cccc(Cl)c1)C(=O)O; Tyr(3-F) = N[C@@H](Cc1ccc(O)c(F)c1)C(=O)O; Tyr(3-OMe) = COc1cc(C[C@H](N)C(=O)O)ccc1O; NMehPhe = CN[C@@H](CCc1ccccc1)C(=O)O; NMeF = CN[C@@H](Cc1ccccc1)C(=O)O; NMeGABA = CN(CCCC(=O)[*:2])[*:1]; CH2CH(OH)CF3 = OC(C*)C(F)(F)F; CH2CONHtBu = CC(C)(C)NC(=O)C*; NMeL = CN[C@@H](CC(C)C)C(=O)O; Butyl(3R-OH) = C[C@@H](O)CC*; Propyl(2R-OH) = C[C@@H](O)C*; NMeA = CN[C@@H](C)C(=O)O; Piperidide = C1CCN(*)CC1; CH2CONHMe = CNC(=O)C*; NBuGly = CCCCNCC(=O)O; NPrGly = CCCNCC(=O)O; Sar = CNCC(=O)O; tBu = CC(C)(C)*
# Experiment: in vitro
# Settings: human
# [1] = Caco-2, Caco-2 (membrane permeability)
SMILES,"Papp (Caco-2, Caco-2 (cm/sec))",Papp [1]
"CCCCN1CC(=O)N(C)[C@@H](CC(C)C)C(=O)N(C)[C@@H](CC(C)C)C(=O)N[C@@H](COC(C)(C)C)C(=O)N(C)[C@@H](CC(C)C)C(=O)N[C@H](C(=O)N2CCCCC2)CC(=O)N(C)CC(=O)N(C)[C@@H](Cc2cccc(Cl)c2)C(=O)N[C@@H](Cc2ccc(C(=O)NS(C)(=O)=O)c(OC)c2)C(=O)N(C)[C@@H](CC(C)C)C(=O)N[C@@H]([C@@H](C)O)C1=O [AP140] ([Sar][NMePhe(3-Cl)][Phe(3-OMe,4-CONHMs)][NMeL]T[NBuGly][NMeL][NMeL]S(tBu)[NMeL]D-Piperidide; lactam N-11)",0.49 ×10⁻⁶ cm/s,
CC(C)C[C@@H]1NC(=O)[C@H](Cc2ccccc2)N(C)C(=O)[C@@H](C(C)C)NC(=O)C[C@@H](C(=O)N2CCCCC2)NC(=O)[C@H](CC(C)C)N(C)C(=O)[C@H](Cc2cccc(Cl)c2)N(C)C(=O)[C@H](COCC[C@@H](C)O)NC(=O)[C@H](CC(C)C)N(C)C(=O)CN(C)C(=O)[C@H]([C@@H](C)O)NC(=O)[C@H](CC(C)C)N(C)C1=O [AP109] ([dV][NMeF]L[NMeL]T[Sar][NMeL]S(Butyl(3R-OH))[NMePhe(3-Cl)][NMeL]D-Piperidide; lactam N-11),0.64 ×10⁻⁶ cm/s,
CCCCN1CC(=O)N(C)[C@@H](CC(C)C)C(=O)N[C@@H](COC(C)(C)C)C(=O)N(C)[C@@H](Cc2ccccc2)C(=O)N(C)[C@@H](CC(C)C)C(=O)N[C@H](C(=O)N2CCCCC2)CC(=O)N[C@H](C(C)C)C(=O)N(C)[C@@H](Cc2ccccc2)C(=O)N[C@@H](COC[C@@H](C)O)C(=O)N(C)[C@@H](CC(C)C)C(=O)N[C@@H]([C@@H](C)O)C1=O [AP71] ([dV][NMeF]S(Propyl(2R-OH))[NMeL]T[NBuGly][NMeL]S(tBu)[NMeF][NMeL]D-Piperidide; lactam N-11),0.71 ×10⁻⁶ cm/s,
CC(C)C[C@@H]1NC(=O)[C@H](Cc2ccccc2)N(C)C(=O)[C@@H](C(C)C)NC(=O)C[C@@H](C(=O)N2CCCCC2)NC(=O)[C@H](CC(C)C)N(C)C(=O)[C@H](CC(C)C)N(C)C(=O)[C@H](Cc2ccc(O)c(F)c2)NC(=O)[C@H](CC(C)C)N(C)C(=O)CN(C)C(=O)[C@H]([C@@H](C)O)NC(=O)[C@H](CC(C)C)N(C)C1=O [pd128] ([dV][NMeF]L[NMeL]T[Sar][NMeL][Tyr(3-F)][NMeL][NMeL]D-Piperidide; lactam N-11),0.17 ×10⁻⁶ cm/s,
CCCN1CC(=O)N(C)[C@@H](C)C(=O)N[C@H](C(=O)N2CCCCC2)CC(=O)N(C)[C@@H](CC(C)C)C(=O)N[C@@H](Cc2ccccc2)C(=O)N(C)[C@@H](CC(C)C)C(=O)N(C)[C@@H](CC(C)C)C(=O)N[C@@H](COCC(=O)NC(C)(C)C)C(=O)N(C)[C@@H](CCc2ccccc2)C(=O)N(C)[C@@H](CC(C)C)C(=O)N[C@@H]([C@@H](C)O)C1=O [AP15] ([NMeL]F[NMeL][NMeL]S(CH2CONHtBu)[NMehPhe][NMeL]T[NPrGly][NMeA]D-Piperidide; lactam N-11),0.86 ×10⁻⁶ cm/s,
CC(C)C[C@H]1C(=O)N[C@@H](COCC(O)C(F)(F)F)C(=O)N(C)[C@@H](Cc2cccc(Cl)c2)C(=O)N(C)[C@@H](Cc2ccccc2)C(=O)N[C@@H](COC(C)(C)C)C(=O)N(C)[C@@H](CC(C)C)C(=O)N[C@@H]([C@@H](C)O)C(=O)N(C)[C@@H](CC(C)C)C(=O)N(C)[C@@H](CC(C)C)C(=O)N[C@H](C(=O)N2CCCCC2)CC(=O)N(C)CCCC(=O)N1C (stereo partly drawn) [Compound C02] ([NMeGABA][NMeL]S(CH2CH(OH)CF3)[NMePhe(3-Cl)][NMeF]S(tBu)[NMeL]T[NMeL][NMeL]D-Piperidide; lactam N-11),,0.19 ×10⁻⁶ cm/s
CNC(=O)COC[C@@H]1NC(=O)[C@H](CC(C)C)N(C)C(=O)C[C@@H](C(=O)N2CCCCC2)NC(=O)[C@H](CC(C)C)N(C)C(=O)CN(C)C(=O)[C@H]([C@@H](C)O)NC(=O)[C@H](CC(C)C)N(C)C(=O)[C@H](CCc2ccccc2)N(C)C(=O)[C@H](CC(C)C)NC(=O)[C@H](Cc2ccccc2)N(C)C(=O)[C@H](CC(C)C)N(C)C1=O [Compound I03] ([NMeL]S(CH2CONHMe)[NMeL][NMeF]L[NMehPhe][NMeL]T[Sar][NMeL]D-Piperidide; lactam N-11),,0.25 ×10⁻⁶ cm/s
CCCCN1CC(=O)N(C)[C@@H](Cc2ccccc2)C(=O)N(C)[C@@H](CC(C)C)C(=O)N[C@@H](Cc2ccc(O)c(OC)c2)C(=O)N(C)[C@@H](CC(C)C)C(=O)N[C@H](C(=O)N2CCCCC2)CC(=O)N(C)CC(=O)N(C)[C@@H](CC(C)C)C(=O)N[C@@H]([C@@H](C)CC)C(=O)N(C)[C@@H](CC(C)C)C(=O)N[C@@H]([C@@H](C)O)C1=O [Compound E08] ([Sar][NMeL]I[NMeL]T[NBuGly][NMeF][NMeL][Tyr(3-OMe)][NMeL]D-Piperidide; lactam N-11),0.12 ×10⁻⁶ cm/s,
CC(C)C[C@@H]1NC(=O)[C@H](Cc2ccccc2)N(C)C(=O)[C@H]2CCCN2C(=O)C[C@@H](C(=O)N2CCCCC2)NC(=O)[C@H](Cc2ccccc2)N(C)C(=O)[C@H](Cc2ccccc2)N(C)C(=O)[C@H](COC(C)(C)C)NC(=O)[C@H](CC(C)C)N(C)C(=O)CN(C)C(=O)[C@H]([C@@H](C)O)NC(=O)[C@H](CC(C)C)N(C)C1=O [pd206] ([dP][NMeF]L[NMeL]T[Sar][NMeL]S(tBu)[NMeF][NMeF]D-Piperidide; lactam N-11),1.8 ×10⁻⁶ cm/s,
